“Also recorded” adds a separate entry of the source. Marks after values point to notes of the source that are not given here.
Key:
CCR5-tropic HIV-1 = assay: Study 201: plasma HIV-1 RNA over 10 days of CVC monotherapy; assay type: in vivo, human; settings: for subjects who achieved HIV-1 RNA levels <400 copies/mL: over the entire study; for HIV-1 RNA, LS mean (SEM) change from Baseline / HIV-1 RNA, Median change from Baseline: Day 11
Experimental: Subjects were antiretroviral treatment experienced, CCR5 antagonist-naïve, with HIV-1 RNA levels of at least 5000 copies/mL and CD4+ cell counts of at least 250 cells/mm^3. Subjects with HIV-2, hepatitis B virus, or hepatitis C virus co-infection or dual/mixed-tropic HIV-1 were ineligible. Other than their HIV-1 infection, subjects were generally healthy.
In this study, all dose groups received the original formulation (DP3_25), except the 100 mg dose group which received an alternative formulation (DP4_100). […] These subjects were excluded from the efficacy, PK, and PK/PD data, but included in the baseline and safety data. In this study, safety and tolerability were assessed by monitoring AEs, vital signs, ECGs, clinical laboratory values from blood and urine, and physical examinations. Data from all subjects on placebo were pooled for the analyses.

HIV-1 [1] = assay: Study 202: virologic response (plasma HIV-1 RNA <50 copies/mL), Snapshot algorithm, ITT; assay type: in vivo, human; settings: Week 24
From the text: The primary efficacy endpoint was the percentage of subjects with plasma HIV-1 RNA <50 copies/mL at Week 24 (using the FDA Snapshot algorithm and the ITT population).

CCR2 = target: T1, CCR2 (Homo sapiens, UniProt P41597); assay: CCR2 receptor occupancy / internalization in PBMCs (monocytes) by flow cytometry; assay type: cell-based
T1 construct: endogenous in cells; host or cells: monocytes within PBMCs from 5 HIV+ and 5 HIV- subjects
T1 sequence (P41597 1-360 isoform P41597-2): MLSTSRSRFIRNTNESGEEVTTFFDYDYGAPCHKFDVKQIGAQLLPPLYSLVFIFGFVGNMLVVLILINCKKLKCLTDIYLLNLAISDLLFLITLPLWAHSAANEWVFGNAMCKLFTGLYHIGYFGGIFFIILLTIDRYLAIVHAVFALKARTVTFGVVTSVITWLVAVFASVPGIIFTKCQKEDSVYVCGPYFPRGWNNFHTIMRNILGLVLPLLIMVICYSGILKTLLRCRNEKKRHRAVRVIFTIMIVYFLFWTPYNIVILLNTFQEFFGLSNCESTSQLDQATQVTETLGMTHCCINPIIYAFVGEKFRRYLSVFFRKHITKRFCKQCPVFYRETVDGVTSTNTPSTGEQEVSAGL
Experimental: The capacity of each drug to inhibit CCR5 or CCR2 internalization was evaluated. Cell-surface expression of CCR5 and CCR2 was assessed by flow cytometry, and fluorescence values were converted into molecules of equivalent soluble fluorescence (MESF).

HIV = assay: Ex vivo intracellular HIV DNA (qPCR) in PBMCs of Study 202 subjects; settings: Week 24
Experimental: Early (strong-stop) and late (full-length) reverse transcript levels were measured by qPCR. […] P24 and viral load levels were measured by ELISA and qRT-PCR after 4 hours.

HIV-1 [2] = assay: Study 201: pharmacokinetic/pharmacodynamic relationships (Emax model); assay type: in vivo, human
From the text: Drug response was characterized using the following maximum effect (Emax) model: […]

CCR1 = target: T2, CCR1 (Homo sapiens, UniProt P32246); assay: Ligand binding to CCR1
T2 sequence (P32246 1-355): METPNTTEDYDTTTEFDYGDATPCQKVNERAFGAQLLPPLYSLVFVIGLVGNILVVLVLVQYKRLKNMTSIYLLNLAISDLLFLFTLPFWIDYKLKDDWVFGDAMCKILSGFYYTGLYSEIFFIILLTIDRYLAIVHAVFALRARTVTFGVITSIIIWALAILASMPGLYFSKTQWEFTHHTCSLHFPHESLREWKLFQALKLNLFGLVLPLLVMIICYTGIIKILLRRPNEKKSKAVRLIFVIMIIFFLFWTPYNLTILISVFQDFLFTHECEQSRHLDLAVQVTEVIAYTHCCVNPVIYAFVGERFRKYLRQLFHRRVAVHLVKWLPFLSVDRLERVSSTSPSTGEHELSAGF

CCR3 = target: T3, CCR3 (Homo sapiens, UniProt P51677); assay: Ligand binding to CCR3
T3 sequence (P51677 1-355): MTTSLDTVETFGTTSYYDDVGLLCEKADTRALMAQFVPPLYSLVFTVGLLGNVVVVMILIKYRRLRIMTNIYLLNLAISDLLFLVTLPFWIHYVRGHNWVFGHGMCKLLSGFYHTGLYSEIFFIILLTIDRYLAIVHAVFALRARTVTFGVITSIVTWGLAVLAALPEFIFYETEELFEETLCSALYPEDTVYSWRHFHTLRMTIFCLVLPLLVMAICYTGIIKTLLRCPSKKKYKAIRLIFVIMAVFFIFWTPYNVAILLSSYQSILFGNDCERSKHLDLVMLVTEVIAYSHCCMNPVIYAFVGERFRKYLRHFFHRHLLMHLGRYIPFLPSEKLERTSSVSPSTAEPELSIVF

## CCCCOCCOc1ccc(-c2ccc3c(c2)/C=C(/C(=O)Nc2ccc([S@@+]([O-])Cc4cncn4CCC)cc2)CCCN3CC(C)C)cc1 [CVC, (S)-8-[4-(2-Butoxyethoxy)phenyl]-1-isobutyl-N-(4-{[(1-propyl-1H-imidazol-5-yl)methyl]sulfinyl}phenyl)-1,2,3,4-tetrahydro-1-benzazocine-5-carboxamide]
CCR5-tropic HIV-1; 25 mg cohort, Baseline
  HIV-1 RNA, Baseline LS mean (SEM): 4.46 (0.18) log10 copies/mL
CCR5-tropic HIV-1; 25 mg dose group
  subjects who achieved HIV-1 RNA levels <400 copies/mL: 1
CCR5-tropic HIV-1; 25 mg once daily
  HIV-1 RNA, Nadir values, Median change from Baseline: −0.7 log10 copies/mL
  Median days to nadir: 10.0 days
  HIV-1 RNA, LS mean (SEM) change from Baseline: −0.64 (0.14) log10 copies/mL
  HIV-1 RNA, Median change from Baseline: −0.5 log10 copies/mL
CCR5-tropic HIV-1; 50 mg cohort, Baseline
  HIV-1 RNA, Baseline LS mean (SEM): 4.33 (0.21) log10 copies/mL
CCR5-tropic HIV-1; 50 mg dose group
  subjects who achieved HIV-1 RNA levels <400 copies/mL: 2
CCR5-tropic HIV-1; 50 mg once daily
  HIV-1 RNA, Nadir values, Median change from Baseline: −1.6 log10 copies/mL
  Median days to nadir: 11.0 days
  HIV-1 RNA, LS mean (SEM) change from Baseline: −1.13 (0.16) log10 copies/mL
  HIV-1 RNA, Median change from Baseline: −1.3 log10 copies/mL
CCR5-tropic HIV-1; 75 mg cohort, Baseline
  HIV-1 RNA, Baseline LS mean (SEM): 4.65 (0.19) log10 copies/mL
CCR5-tropic HIV-1; 75 mg once daily
  HIV-1 RNA, Nadir values, Median change from Baseline: −1.8 log10 copies/mL
  Median days to nadir: 10.0 days
  HIV-1 RNA, LS mean (SEM) change from Baseline: −1.46 (0.15) log10 copies/mL
  HIV-1 RNA, Median change from Baseline: −1.6 log10 copies/mL
CCR5-tropic HIV-1; 150 mg cohort, Baseline
  HIV-1 RNA, Baseline LS mean (SEM): 4.10 (0.19) log10 copies/mL
CCR5-tropic HIV-1; 150 mg dose group
  subjects who achieved HIV-1 RNA levels of <50 copies/mL: 2
  subjects who achieved HIV-1 RNA levels <400 copies/mL: 3
CCR5-tropic HIV-1; 150 mg once daily
  HIV-1 RNA, Nadir values, Median change from Baseline: −1.7 log10 copies/mL
  Median days to nadir: 11.0 days
  HIV-1 RNA, LS mean (SEM) change from Baseline: −1.42 (0.16) log10 copies/mL
  HIV-1 RNA, Median change from Baseline: −1.5 log10 copies/mL
CCR5-tropic HIV-1; Baseline, Day 7, Day 40, all subjects with evaluable samples
  drug resistance testing (in words): remained fully susceptible
HIV-1 [1]; CVC 100 mg
  virologic non-response, subgroup with high baseline viral load (≧100,000 copies/mL): 20%
HIV-1 [1]; CVC 100 mg arm
  HIV-1 RNA ≧400 copies/mL: (7%)
  Treatment difference from EFV arm: 5%
HIV-1 [1]; CVC 200 mg
  virologic non-response, subgroup with high baseline viral load (≧100,000 copies/mL): 29%
HIV-1 [1]; CVC 200 mg arm
  Discontinued study due to AE or death: (2%)
  HIV-1 RNA ≧50 but <400 copies/mL: (7%)^e
  Treatment difference from EFV arm: 4%
CCR2; CCR2, monocytes
  average concentration required to reach >80% receptor occupancy: 1.8 nM
CCR2; PBMCs
  prevention of MCP-1-induced CCR2 internalization (in words): at lower concentrations than BMS-22
CCR2; in the absence of MCP-1, monocytes
  CCR2 cell-surface expression (in words): induced CCR2 internalization and decreased cell-surface expression on monocytes; also recorded: reduced CCR2 expression on monocytes
CCR2; monocytes
  concentration at which saturation of monocyte CCR2 was reached: 6 nM
CCR2; monocytes, at 6 nM (saturation)
  receptor occupancy at 0.006 µM: ~98%
HIV; CVC 100 mg arm
  Strong-stop HIV DNA decline (marker of HIV entry): 51%
HIV; CVC 200 mg arm
  Strong-stop HIV DNA decline (marker of HIV entry): 37%
HIV-1 [2]; HIV-1 RNA, Study 201
  Emax in the PK/PD model: −1.43 log10 copies/mL
HIV-1 [2]; Human immunodeficiency virus 1, 25 mg dose, read-out: percent of the maximum inhibitory effect at average Css (Emax model)
  Emax at 25 mg: 54.9%
HIV-1 [2]; Human immunodeficiency virus 1, 50 mg dose, read-out: percent of the maximum inhibitory effect at average Css (Emax model)
  Emax at 50 mg: 79.8%
HIV-1 [2]; Human immunodeficiency virus 1, 75 mg dose, read-out: percent of the maximum inhibitory effect at average Css (Emax model)
  Emax at 75 mg: 85.9%
HIV-1 [2]; Human immunodeficiency virus 1, 150 mg dose, read-out: percent of the maximum inhibitory effect at average Css (Emax model)
  Emax at 150 mg: 95.9%
CCR1
  inhibition of ligand binding (in words): did not inhibit
CCR3
  inhibition of ligand binding (in words): weakly inhibited

From US20170105969A1, “CENICRIVIROC FOR THE TREATMENT OF HIV-2 INFECTION” (Tobira Therapeutics, Inc., priority 2014, published 2017)
